The record followed here is patent US20230167437A1, “COMPOSITIONS FOR TREATING CANCER WITH KRAS MUTATIONS AND USES THEREOF” (Aadigen, LLC, priority 2020, published 2023).

Some results are limits rather than exact numbers.

Series [1] relates to KRAS 35G>T mutant G12V. In words: Indel frequencies at the endogenous target sequences (T7E1 / deep sequencing) after ADGN/Cas9 mRNA/gRNA transfection. It counts as cell-based, human. To be noted: for indel frequencies: deep sequencing, 72 hours after transfection, Cas9 mRNA 0.15 μg, gRNA 0.2 μg, ADGN-100. The procedure:
(§1) Complex formation with mRNA:gRNA: ADGN peptide/mRNA/gRNA particles were prepared at a 20:1:1 molar ratio. ADGN/Cas9mRNA/sgRNA complexes were prepared at a 20/1/1 molar ratio with 0.5 μg mRNA: 1.5 μg sgRNA and 5% Glucose or DMEM (example for 96 well plates). […] Premixed Cas9 mRNA/gRNA were prepared in sterile water at room temperature in a glass vial (1-4 ml). ADGN-peptide solution was added dropwise (1 drop/sec) under magnetic agitation at 400 rpm to obtain a 1:2 ratio, and incubated for 30 min at room temperature or 37° C. Just before transfection, 150 μl Glucose or DMEM was added and the solution was mixed under magnetic agitation at 400 rpm for 1 minute. Then the solution was incubated for 5 min at 37° C. Then the complexes was ready for cell transfection or IV administration. Prior to IV administration, complexes were diluted in sucrose 5% solution.
(§2) Transfection protocol. The following protocols are reported for 24/48/96 well plate format transfection. Cells should be trypsinized and seeded a day prior transfection Cells were cultured in Dulbecco's Modified Eagle's Medium (DMEM), supplemented with 2 mM glutamine, 1% antibiotics (streptomycin 10,000 μg/mL, penicillin, 10,000 IU/mL) and 10% (w/v) foetal calf serum (FCS), at 37° C. in a humidified atmosphere containing 5% CO2. 96 well plates seeded with 50,000 cells, the day prior transfection, grown to 60-80% confluence and set up to be at around 70% confluence at the day of transfection. Before transfection, cells are washed twice with DMEM (without FBS and pen/strep) (100 μl/well). Cells were then overlaid with 25 μl of complex solution, mixed gently and incubated for 10 min at 37° C.+5% CO2. 50 μl of fresh DMEM (without FBS and Antibiotics) was added and cells were incubated for 2 h at 37° C.+5% CO2 (time of exposure can be adjusted based on sensitivity of the cells). 250 μL of DMEM (containing 10% FCS and 1% antibiotics) were then added without removing the overlay of ADGN peptide/mRNA complexes. Cells were returned to the incubator (37° C., 5% CO2) and analyzed 48 hours to 72 hours post transfection.
(§3) Nine different gRNAs targeting KRAS 35G>T mutant G12V (gRNA35T1, gRNA35T2, gRNA35T3, gRNA35T4, gRNA35T5, gRNA35T6, gRNA35T7, gRNA35T8 and gRNA35T9 (see FIG. 18)) were evaluated on SW403 and SW480 cancer cells harboring G12V KRAS mutation. Cas9 mRNA (0.15 μg) and gRNA (0.2 μg) were associated with ADGN-peptides as reported in experimental procedure. SW403, SW480 and HT-29 cells were cultured in 48 well plate format and treated with free mRNACas9-gRNA, or ADGN-100/mRNACas9:gRNA complex. Indel frequencies at the endogenous target sequences was evaluated 72 hours after transfection by either T7E1 method and by deep sequencing. Cell proliferation was analyzed over a period of 5 days using CellTiter Glow kits on GlowMax (Promega).
(§4) In order to confirm the specificity of sgRNAs targeting G12V, G12C or G12D KRAS mutation, gRNA35T3 targeting G12V, gRNA34T6 targeting G12C, and gRNA35A5 targeting G12D were evaluated on a large panel of cancer cells harboring different KRAS mutations including SW403, SW480, PANC1, PK-45H, PK-1, MIA-PACA, H23, H358, HT-29, HS-68 and LS513. Cas9 mRNA (0.2 μg) and gRNA (0.4 μg) were associated with ADGN peptide at molar ratio 20/1 (peptide/nucleic acid). Cells were cultured in 48 well plate format and treated with free mRNACas9-gRNA, or ADGN/mRNACas9:gRNA complex. Indel frequencies at the endogenous target sequences was evaluated 72 hours after transfection by either T7E1 method and cell proliferation was analyzed over a period of 5 days using CellTiter Glow kits on GlowMax (Promega).

For series [2], the system named is wild type KRAS. The series is described as above. The format is cell-based, human. To be noted: HT29 cells. As to the method:
as §1, §2, §3
Nine different gRNAs targeting KRAS 35G>A mutant G12D (gRNA35A1, gRNA35A2, gRNA35A3, gRNA35A4, gRNA35A5, gRNA35A6; gRNA35A7, gRNA35A8, gRNA35A9) were evaluated on LS513, Panc1, PK-45H, and PK1 cancer cells harboring G12D KRAS mutation. Cas9 mRNA (0.1 μg) and gRNA (0.2 μg) were associated with ADGN-peptide at molar ratio 20/1 (peptide/nucleic acid). LS513, Panc1, PK-45H, PK1, HS-68 and HT-29 cells were cultured in 48 well plate format and treated with free mRNACas9-gRNA, or ADGN/mRNACas9:gRNA complex. Indel frequencies at the endogenous target sequences was evaluated 72 hours after transfection by either T7E1 method or deep sequencing. Cell proliferation was analyzed over a period of 5 days using CellTiter Glow kits on GlowMax (Promega).

Series [3] has as its system HT-29 cells. In words: Cell proliferation over 5 days (CellTiter Glow). To be noted: KRAS WT cells. It counts as cell-based, human. The procedure: as §2, §3
A general note: ATP-based viability assays read luminescence as a measure of living cells.

Series [4] relates to SW403 and SW480 cells. In words: Cell proliferation over 5 days (CellTiter Glow). The format is cell-based, human. As to the method:
as §2, §3

Series [5] deals with G12V, G12D, G12C KRAS mutant cells and WT KRAS cells. Kind of series: Specificity of lead sgRNAs on a large panel of cancer cells harboring different KRAS mutations (indel, proliferation). The format is cell-based, human. To be noted: Cas9 mRNA 0.2 μg, gRNA 0.4 μg. As to the method:
as §4

Series [6] has as its system phospho-Akt (Ser 473). Kind of series: Western blot of KRAS downstream signaling 48 h post transfection. The format is cell-based, human. The settings on record: SW403 cells. The procedure:
(§5) In order to verify the specific effect of your lead sgRNA targeting G12V and G12D KRAS mutation, gRNA35A5 G12D and gRNA35T3 G12V on KRAS signal transduction pathway in PANC-1 and SW403 cells, we measured the levels of downstream signaling proteins that are activated by KRAS. We specifically looked for changes in key signaling pathways, such as mitogen-activated protein kinase (MAPK) or PI3K/Akt, which are known to be the major effector pathways of KRAS activation. Cas9 mRNA (0.2 μg) and gRNA (0.2 μg or 0.5 μg) were associated with ADGN peptide at molar ratio 20/1 (peptide/nucleic acid). PANC1 and SW403 cells were cultured in 48 well plate format and treated with free mRNACas9-gRNA, or ADGN/mRNACas9:gRNA complex. Levels of Erk and Akt phosphorylation were measured 48 h post transfection by western blot using phospho-Akt (Ser 473) (CST, #9271, RRID:AB_329825) and phospho-p44/42 MAPK (Erk1/2) (Thr202/Tyr204) (CST, #4370, RRID:AB_2315112).
(A western blot detects proteins with antibodies after separation by electrophoresis.)

For series [7], the system named is phospho-p44/42 MAPK (Erk1/2) (Thr202/Tyr204). The description is as above. The settings on record: SW403 cells. It counts as cell-based, human. The procedure: as §5
In series [8] the test system is pERK. Kind of series: Downstream signaling proteins quantified by ELISA on tumors. To be noted: SW403 tumors. It counts as in vivo, mice. The procedure: The specificity of gRNA35A5 G12D and gRNA35T3 G12V for their targets in PANC-1 and SW403 tumors cells, have been analyzed. Female nude mice 6-weeks of age were injected with either Human pancreatic carcinoma cell (Panc1-Luc) containing the 35G>A mutation or Human colorectal cancer cells (SW403) containing 35G>T KRAS mutation (20×10^6 cells in 200 μl PBS). A period of 2 weeks was allowed for tumor development before the beginning of the experiments.
Animal were injected on day 1 and day 7. Mice received IV injection of 100 μl ADGN/mRNA complex in 5% glucose. At Day 50, animals were sacrificed and tissues/tumors were harvested. At Day 50 post treatment, level of expression of housekeeping genes; glyceraldehyde-3-phosphate dehydrogenase (GAPDH), HPRT-1 and mitochondrial ATP synthase 6 (mATPsy6) was evaluated by PCR in the tumor, liver, spleen and lung.
We analyzed the level of KRAS G12D or KRAS G12V gene editing by deep sequencing in PANC1 (FIG. 14A) and SW403 (FIG. 14B) tumors, respectively. […] The level of downstream signaling proteins (pAKT and pERK) were quantified by ELISA on PANC1 and SW403 tumors. […] Given that targeting KRAS using Cas9/sgRNA can induce various secondary mutations at or near the target sites, deep sequencing shown similar level of secondary oncogenic mutations (G12D, G12V, G12C, G13D, G12R, G12A, and G12S) in KRAS-mutant cancer cells (SW403/PANC-1) or cells containing wild-type KRAS (HT29) either in vitro or in vivo.
A general note: In an ELISA, binding on a coated surface is turned into a signal by an enzyme label.

The subject of series [9] is SW403 tumor (Human colorectal cancer, 35G>T). In words: SW403 tumor growth in vivo, combination with Capecitabine. Set-up: species or system mice. The settings on record: Capecitabine 200 μg once a week. As to the method: It was also evaluated whether targeting mutant KRAS in combination with a chemotherapeutic agent can suppress tumor growth in vivo when administered intravenously using ADGN-100-Hy3 nanoparticles. Female nude mice 6-weeks of age were injected with either Human pancreatic carcinoma cell (Panc1-Luc) containing the 35G>A mutation, or Human colorectal cancer cells (SW403) containing 35G>T KRAS mutation (20×10^6 cells in 200 μl PBS). The animals were kept under pathogen-free conditions and fed and watered ad libitum, in cages of 2 to 4 animals (in compliance with recommended area surface/animal), in a dedicated room with a 12 h/12 h light/dark cycle at a constant temperature of 22° C. A period of 2 weeks was allowed for tumor development before the beginning of the experiments […]
Animal were injected ADGN/mRNA complex on day 1 and day 7. […] PANC-1 tumor size was evaluated by bioluminescence imaging. […] Semi-quantitative data of luciferase-positive tumor cell signals were obtained using the manufacturer's software (Living Image; PerkinElmer). Results were expressed as photons/second (photons/s). […] Results were then expressed as values relative to day 0. SW403 tumor size was evaluated every 7 days using caliper. Results were then expressed as values relative to day 0. […]

[10] abbreviates: SW403 cells (heterozygous 35G>T).

As to “AGC TGT TGG CGT AGG CAA (guide AGCTGTTGGCGTAGGCAA; chemistry not given here) [gRNA35T4, sgRNA target KRAS G12V mutation (c.35G>T); PAM GAG]”, the values for the indel frequencies in series [1] (setting [10]) and in series [1] (SW480 cells (homozygous 35G>T)) were 22% and 41%, respectively. Further, the “disruption of WT KRAS” value in [2] is “also induced disruption of WT KRAS in HT29 cells”. For the same molecule, the HT-29 proliferation result in [3] is on record as “altered also HT-29 proliferation”.

Take “GGTAGTTGGAGCTGTTGGCG (guide GGTAGTTGGAGCTGTTGGCG; chemistry not given here) [gRNA35T3, sgRNA target KRAS G12V mutation (c.35G>T); PAM TAG]”: the indel frequency in series [1] (KRAS G12V mutated cancer cells) is more than 70%; in [1] (SW403 and SW480 cells, T7E1, 72 hours, Cas9 mRNA 0.2 μg, gRNA 0.4 μg), more than 65%. Moreover, the “indel editing and disruption of G12V mutant KRAS (FIG. 1A)” value in series [1] (SW403, SW480 vs wild type KRAS HT29 cells, T7E1) was “specifically induced indel editing and efficient disruption”. Further, the indel frequencies in series [1] (setting [10]) came out at 65%; in [1] (SW480 cells (homozygous 35G>T)) it was 81%. Further, in [4] (SW403 and SW480 cells), the “fold more efficient than gRNA35T6 (cell proliferation)” value amounted to 2 fold. In addition, in [4] (SW403 and SW480 cells), the “fold more efficient than gRNA35T8 (cell proliferation)” value was found to be 1.5 fold. In addition, in series [4] (SW403 and SW480 cells, 5 days), the cell proliferation blocked was found to be 75%. In addition, the “inhibition of proliferation or survival (FIG. 1B)” value in series [4] (SW480 and SW403 cells vs HT29 cells harboring KRAS WT) is “specifically inhibit proliferation or survival of SW480 and SW403 cells”. The “effect on non-targeted KRAS mutant cells and WT KRAS cells (FIGS. 4A-4B)” value in [5] was “does not alter G12D and G12C KRAS mutant cells or WT KRAS cells”. The Akt phosphorylation entry in series [6] is given as “poorly”. Also, the “level of p-Erk” value in series [7] is listed as “significantly affected”. Also, the “level of p-ERK” value in series [8] is “significantly affected”.

Consider `CCCCCOC(=O)Nc1nc(=O)n([C@@H]2O[C@H](C)[C@@H](O)[C@H]2O)cc1F` [Capecitabine], for which the “reduction of SW403 tumor growth” value in series [9] came to 38%.
